This is an account of results in paper PMC5984625, “Dynamic structural states of ClpB involved in its disaggregation function” (Nature Communications, 2018).

This test deals with T1, ΔN-TClpB (Thermus thermophilus, UniProt Q9RA63).
T1 construct: gene clpB; N-terminal domain deletion (AAA1, M-domain and AAA2 kept); from plasmid pMCB1; expressed in E. coli BL21(DE3) or KRX; purified; hexamer and smaller oligomers
Briefly: fluorescence displacement of mant-ADP. The settings on record: per monomer; competitive binding model; 12.5 μM mant-ADP; Mg-ATP; pH 7.5, 20 mM KCl, 5 mM MgCl2, 25 °C; read-out: apparent Kd.

T1 sequence (Q9RA63 141-854, stated change not applied): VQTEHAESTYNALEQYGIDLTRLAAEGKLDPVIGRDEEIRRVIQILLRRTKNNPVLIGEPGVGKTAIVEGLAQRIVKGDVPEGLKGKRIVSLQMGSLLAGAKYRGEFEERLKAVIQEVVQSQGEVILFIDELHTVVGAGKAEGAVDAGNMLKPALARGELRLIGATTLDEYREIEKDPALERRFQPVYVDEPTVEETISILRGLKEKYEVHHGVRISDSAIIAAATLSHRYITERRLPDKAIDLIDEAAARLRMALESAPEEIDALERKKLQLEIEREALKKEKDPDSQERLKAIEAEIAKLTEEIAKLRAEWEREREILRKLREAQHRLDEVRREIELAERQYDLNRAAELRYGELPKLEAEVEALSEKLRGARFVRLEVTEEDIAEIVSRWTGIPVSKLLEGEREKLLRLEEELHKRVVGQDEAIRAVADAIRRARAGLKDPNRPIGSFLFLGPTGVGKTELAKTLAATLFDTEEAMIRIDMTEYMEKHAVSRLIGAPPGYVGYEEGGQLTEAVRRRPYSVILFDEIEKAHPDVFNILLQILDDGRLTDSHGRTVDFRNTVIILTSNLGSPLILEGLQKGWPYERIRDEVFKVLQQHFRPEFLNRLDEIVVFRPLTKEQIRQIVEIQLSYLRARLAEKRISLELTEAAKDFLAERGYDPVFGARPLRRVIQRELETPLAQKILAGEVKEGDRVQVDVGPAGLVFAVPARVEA

In the case of `Nc1ncnc2c1ncn2[C@@H]1O[C@H](COP(=O)(O)OP(=O)(O)OP(=O)(O)O)[C@@H](O)[C@H]1O` [ATP], the Kd was 9.2 µM.
